{"source": "patent US20030130280A1", "about": "“Treatment of acute myeloid leukemia with indolinone compounds” (SUGEN, Inc., priority 2001, published 2003)", "key": {"[1]": {"molecular_target": "T1, FLT-3 (Homo sapiens, UniProt P36888)", "T1 construct": "The OC1-AML5 cell line which express FLT-3-wild type was obtained (Pharmacia); host or cells: OC1-AML5", "T1 sequence (P36888 27-993)": "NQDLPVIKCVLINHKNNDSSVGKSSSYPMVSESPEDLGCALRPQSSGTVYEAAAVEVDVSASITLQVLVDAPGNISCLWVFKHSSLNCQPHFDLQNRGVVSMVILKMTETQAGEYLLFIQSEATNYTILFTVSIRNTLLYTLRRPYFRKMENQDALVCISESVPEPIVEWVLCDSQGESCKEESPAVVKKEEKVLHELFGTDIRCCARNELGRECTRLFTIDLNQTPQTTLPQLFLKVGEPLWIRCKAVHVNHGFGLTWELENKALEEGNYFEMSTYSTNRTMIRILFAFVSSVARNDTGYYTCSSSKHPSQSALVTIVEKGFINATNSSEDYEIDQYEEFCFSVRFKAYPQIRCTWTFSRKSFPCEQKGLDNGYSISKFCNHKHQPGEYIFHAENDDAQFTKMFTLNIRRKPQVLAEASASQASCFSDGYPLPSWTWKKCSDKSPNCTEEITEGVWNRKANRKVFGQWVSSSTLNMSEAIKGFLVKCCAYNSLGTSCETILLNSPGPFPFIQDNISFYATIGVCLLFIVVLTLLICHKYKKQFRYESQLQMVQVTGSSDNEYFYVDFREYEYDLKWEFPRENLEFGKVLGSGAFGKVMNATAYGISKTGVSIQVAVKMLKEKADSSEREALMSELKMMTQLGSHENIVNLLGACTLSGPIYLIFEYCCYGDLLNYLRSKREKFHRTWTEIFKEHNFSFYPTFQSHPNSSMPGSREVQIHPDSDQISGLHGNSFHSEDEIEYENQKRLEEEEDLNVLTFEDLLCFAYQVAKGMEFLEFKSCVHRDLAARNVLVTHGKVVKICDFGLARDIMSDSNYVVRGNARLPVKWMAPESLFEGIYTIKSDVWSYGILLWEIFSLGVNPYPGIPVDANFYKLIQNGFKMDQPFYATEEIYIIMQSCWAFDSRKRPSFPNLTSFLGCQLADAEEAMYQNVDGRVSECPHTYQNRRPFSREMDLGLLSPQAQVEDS", "experiment": "FLT-3 ligand stimulated FLT-3 phosphorylation in OC1-AML5 cells", "assay_type": "cell-based", "settings": "FLT-3 ligand stimulated OC1-AML5 cells", "text": "Cells were stimulated with FLT-3 ligand and lysed. FLT-3 was immunoprecipitated from lysates with a commercially available antibody. Proteins were separated by SDS-polyacrylamide gel electrophoresis, transferred to membranes and analyzed by Western blotting for phosphotyrosine and subsequently for total FLT-3 protein as control."}, "[2]": {"test_system": "OC1-AML5", "experiment": "VEGF production, OC1-AML5 cells", "assay_type": "cell-based", "settings": "for VEGF %: 0 uM = 100"}, "[3]": {"test_system": "MV4; 11", "experiment": "VEGF production, MV4;11 cells", "assay_type": "cell-based", "settings": "for VEGF %: 0 uM = 100"}, "[4]": {"test_system": "MV411 tumors", "experiment": "Subcutaneous MV411 tumor model, tumor growth", "assay_type": "in vivo, athymic mice", "settings": "within 4 days of treatment", "method": "Tumor cells, MV411 in the example shown were implanted subcutaneously in the hindflank of athymic mice. […] For measurement of efficacy, tumor growth was measured at various subsequent time points using vernier calipers. For analysis of phosphorylation, tumors were resected following dosing (4 hours here), pulverized in liquid nitrogen and homogenized in lysis buffer. FLT-3 and Stat5 phosphorylation were measured by immunoprecipitation and Western blot analysis.\nAthymic mice were injected subcutaneously with MV411 and RS411 cells to cause tumor formation."}, "[5]": {"test_system": "Stat5", "experiment": "Stat5 activation by FLT-3 ligand in OC1-AML5 cells (IP/Western, Western, gel shift)", "assay_type": "cell-based", "settings": "FLT-3 ligand stimulated", "text": "Activation of downstream pathways by FLT-3 ligand was also investigated, specifically for Stat5 and erk. Stat5 and Erk are downstream mediators of RTK signaling, and may provide readouts for FLT-3 signaling. Stat 5 is a transcription factor which regulates many genes involves in cell survival and proliferation. Erk½ are kinases on the Raf signaling pathway."}, "[6]": {"test_system": "RS411 (wild type FLT-3)", "experiment": "Cell proliferation, RS411", "assay_type": "cell-based"}, "[7]": {"molecular_target": "T2, Wild-type FLT-3 (Homo sapiens, UniProt P36888)", "T2 construct": "host or cells: RS411 (RS4;11)", "T2 sequence (P36888 27-993)": "T1 sequence (P36888 27-993)", "experiment": "FLT-3 phosphorylation by immunoprecipitation/Western in RS411 cells; for Wild-type FLT-3 (inhibition of phosphorylation): key: +++: very strong inhibition; ++: inhibition; +/−: weak inhibition; −: no inhibition", "assay_type": "cell-based", "method": "FLT-3 was immunoprecipitated from lysates with a commercially available antibody. Proteins were separated by SDS-polyacrylamide gel electrophoresis, transferred to membranes analyzed by Western blotting for phosphotyrosine and subsequently for total FLT-3 protein as control. […]\nImmunoprecipitation and Western Blot (IP/W) analysis: Cells were lysed in lysis buffer (20 mM Tris, pH 7.5; 137 mM NaCl; 10% glycerol; 1% NP-40; 0.1% SDS; 2 mM EDTA) containing protease and phosphatase inhibitors (50 mM sodium fluoride, 1 mM sodium orthovanadate, 2 mM Pefabloc, […], […], […], 4 mM leupeptin, and 4 mM pepstatin A). Equivalent amounts of protein were separated by SDS-PAGE, then transferred to nitrocellulose membranes. For analysis of FLT3 phosphorylation, equivalent amounts of protein from each sample were immunoprecipitated overnight at 4*C. with an agarose-conjugated anti-FLT3 antibody (Santa Cruz Biotechnology, Santa Cruz, Calif.). Immune complexes were washed (150 mM NaCl, 1.5 mM MgCl2, 50 mM HEPES, pH 7.5, 10% glycerol, 0.1% Triton X-100, and 1 mM EGTA) and following SDS-PAGE, proteins were transferred to nitrocellulose membranes. Membranes were probed with an anti-phosphotyrosine antibody (Upstate, Lake Placid, N.Y. or Transduction Laboratories, Lexington, Ky.) and then stripped with Restore Western Blot Stripping Buffer (Pierce, Rockford, Ill.). Membranes were reprobed with an anti-FLT3 antibody (Santa Cruz Biotechnology). Stat5 antibodies for immunprecipitation and Western blot analysis were from Upstate Biotechnology and Transduction labs respectively."}}}
{"compound": "CCN(CC)CCNC(=O)c1c(C)[nH]c(/C=C2\\C(=O)Nc3ccc(F)cc32)c1C", "note": "[Compound 1, 5-(5-Fluoro-2-oxo-1,2-dihydro-indol-3-ylidenemethyl)-2,4-dimethyl-1H-pyrrole-3-carboxylic acid(2-diethylamino-ethyl)-amide]", "values": [{"measurement": "FLT-3 phosphorylation", "setting": "[1]", "result": "decreased"}, {"measurement": "VEGF mean sd", "setting": "[2]; CMPD 1 0.00 uM", "result": 92.5}, {"measurement": "VEGF %", "setting": "[2]; CMPD 1 0.00 uM", "result": 91.8, "unit": "%"}, {"measurement": "VEGF mean sd", "setting": "[2]; CMPD 1 0.01 uM", "result": 35.6}, {"measurement": "VEGF %", "setting": "[2]; CMPD 1 0.01 uM", "result": 35.3, "unit": "%"}, {"measurement": "VEGF mean sd", "setting": "[2]; CMPD 1 0.1 uM", "result": 33.6}, {"measurement": "VEGF %", "setting": "[2]; CMPD 1 0.1 uM", "result": 33.3, "unit": "%"}, {"measurement": "VEGF mean sd", "setting": "[2]; CMPD 1 1 uM", "result": 28.3}, {"measurement": "VEGF %", "setting": "[2]; CMPD 1 1 uM", "result": 28.0, "unit": "%"}, {"measurement": "VEGF %", "setting": "[2]; CMPD 1 10 uM", "result": 15.5, "unit": "%"}, {"measurement": "VEGF mean sd", "setting": "[3]; CMPD 1 0.00 uM", "result": 287.8}, {"measurement": "VEGF %", "setting": "[3]; CMPD 1 0.00 uM", "result": 83.0, "unit": "%"}, {"measurement": "VEGF mean sd", "setting": "[3]; CMPD 1 0.01 uM", "result": 65.4}, {"measurement": "VEGF %", "setting": "[3]; CMPD 1 0.01 uM", "result": 18.9, "unit": "%"}, {"measurement": "VEGF mean sd", "setting": "[3]; CMPD 1 0.1 uM", "result": 31.2}, {"measurement": "VEGF %", "setting": "[3]; CMPD 1 0.1 uM", "result": 9.0, "unit": "%"}, {"measurement": "VEGF mean sd", "setting": "[3]; CMPD 1 1 uM", "result": 30.5}, {"measurement": "VEGF %", "setting": "[3]; CMPD 1 1 uM", "result": 8.8, "unit": "%"}, {"measurement": "VEGF mean sd", "setting": "[3]; CMPD 1 10 uM", "result": 23.3}, {"measurement": "VEGF %", "setting": "[3]; CMPD 1 10 uM", "result": 6.7, "unit": "%"}, {"measurement": "tumor size", "setting": "[4]", "result": "dramatically reduced tumor size to almost undetectable"}, {"measurement": "Stat5 activity", "setting": "[5]", "result": "inhibited"}, {"measurement": "expansion of RS411", "setting": "[6]", "result": "inhibited expansion"}, {"measurement": "Wild-type FLT-3 (inhibition of phosphorylation)", "setting": "[7]; RS411 cells, IP/Western", "result": "++"}, {"measurement": "inhibition of wild-type FLT-3 phosphorylation", "setting": "[7]; in words", "result": "inhibits"}]}
